Active and inactive are the calls of the source. The rule behind the calls is not given here. Square brackets hold non-standard residues; d marks the D form. Peptide text beside a SMILES is read from it. Arg(Me) = CNC(=N)NCCC[C@H](N)C(=O)O; d3Pal = N[C@H](Cc1cccnc1)C(=O)O; d4Pal = N[C@H](Cc1ccncc1)C(=O)O; azaGly = NNC(=O)O
Legend:
[1] = biological target: Histamine H4 receptor (Homo sapiens) (UniProt Q9H3N8); details: Compound concentration 1.0 uM
[2] = biological target: 5-hydroxytryptamine receptor 5A (Homo sapiens) (UniProt P47898); details: Compound concentration 1.0 uM
[3] = biological target: Alpha-2C adrenergic receptor (Homo sapiens) (UniProt P18825); details: Compound concentration 1.0 uM
[4] = biological target: T1, GABA-A receptor; anion channel (Rattus norvegicus) (UniProt O09028+P15431+P18506+P18508+P19969+P20236+P23574+P23576+P28471+P28473+P30191+P62813+P63079+P63138+Q91ZM7+Q9ES14); details: Compound concentration 1.0 uM
[5] = biological target: 5-hydroxytryptamine receptor 2B (Homo sapiens) (UniProt P41595); details: Compound concentration 1.0 uM
[6] = biological target: Muscarinic acetylcholine receptor M1 (Homo sapiens) (UniProt P11229); details: Compound concentration 1.0 uM
[7] = biological target: Alpha-1B adrenergic receptor (Homo sapiens) (UniProt P35368); details: Compound concentration 1.0 uM
Sequence of Alpha-1B adrenergic receptor (Homo sapiens) (P35368 whole entry): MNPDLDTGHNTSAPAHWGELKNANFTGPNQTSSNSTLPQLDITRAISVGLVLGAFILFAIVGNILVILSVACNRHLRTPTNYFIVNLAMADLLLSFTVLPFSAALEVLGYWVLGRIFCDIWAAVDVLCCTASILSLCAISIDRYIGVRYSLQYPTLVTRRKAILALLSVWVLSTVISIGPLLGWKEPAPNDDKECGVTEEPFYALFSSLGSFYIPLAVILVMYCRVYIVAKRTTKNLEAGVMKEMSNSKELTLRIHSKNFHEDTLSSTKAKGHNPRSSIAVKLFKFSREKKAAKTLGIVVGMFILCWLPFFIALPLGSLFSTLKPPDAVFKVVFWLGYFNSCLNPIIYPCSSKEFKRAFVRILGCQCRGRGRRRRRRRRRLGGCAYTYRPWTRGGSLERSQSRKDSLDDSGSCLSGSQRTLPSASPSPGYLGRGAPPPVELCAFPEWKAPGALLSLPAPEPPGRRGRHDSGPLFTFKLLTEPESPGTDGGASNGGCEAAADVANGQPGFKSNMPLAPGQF

[8] = biological target: Muscarinic acetylcholine receptor M4 (Homo sapiens) (UniProt P08173); details: Compound concentration 1.0 uM
[9] = biological target: Beta-1 adrenergic receptor (Homo sapiens) (UniProt P08588); details: Compound concentration 1.0 uM
[10] = biological target: Kappa-type opioid receptor (Homo sapiens) (UniProt P41145); details: Compound concentration 1.0 uM
Sequence of Kappa-type opioid receptor (Homo sapiens) (P41145 whole entry): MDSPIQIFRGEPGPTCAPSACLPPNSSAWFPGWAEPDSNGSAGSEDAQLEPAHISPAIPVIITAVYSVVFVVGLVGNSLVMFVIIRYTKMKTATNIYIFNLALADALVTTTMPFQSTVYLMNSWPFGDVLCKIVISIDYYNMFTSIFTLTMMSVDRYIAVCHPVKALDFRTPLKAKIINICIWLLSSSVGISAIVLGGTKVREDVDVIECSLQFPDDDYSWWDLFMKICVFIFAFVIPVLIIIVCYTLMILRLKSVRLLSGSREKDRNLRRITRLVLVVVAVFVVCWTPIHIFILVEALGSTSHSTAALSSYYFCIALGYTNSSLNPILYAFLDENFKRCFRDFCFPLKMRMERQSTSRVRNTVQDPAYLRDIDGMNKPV

[11] = biological target: T1, GABA-A receptor; anion channel (Rattus norvegicus); details: Compound concentration 1.0 uM; remark: listed apart in the source
[12] = biological target: 5-hydroxytryptamine receptor 1B (Homo sapiens) (UniProt P28222); details: Compound concentration 1.0 uM
Sequence of 5-hydroxytryptamine receptor 1B (Homo sapiens) (P28222 whole entry): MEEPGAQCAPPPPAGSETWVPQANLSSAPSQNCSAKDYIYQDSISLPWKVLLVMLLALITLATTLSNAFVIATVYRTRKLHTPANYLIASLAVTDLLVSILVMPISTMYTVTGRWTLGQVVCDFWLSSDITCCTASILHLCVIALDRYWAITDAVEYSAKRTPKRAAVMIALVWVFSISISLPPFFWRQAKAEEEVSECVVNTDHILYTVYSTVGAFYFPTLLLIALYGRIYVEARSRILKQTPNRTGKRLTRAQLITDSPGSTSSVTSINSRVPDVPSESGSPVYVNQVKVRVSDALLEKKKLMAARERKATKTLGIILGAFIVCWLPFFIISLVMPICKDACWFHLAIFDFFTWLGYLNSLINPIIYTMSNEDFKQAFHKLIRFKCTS

[13] = biological target: Sodium-dependent noradrenaline transporter (Homo sapiens) (UniProt P23975); details: Compound concentration 1.0 uM
[14] = biological target: Histamine H3 receptor (Homo sapiens) (UniProt Q9Y5N1); details: Compound concentration 1.0 uM
[15] = biological target: 5-hydroxytryptamine receptor 1E (Homo sapiens) (UniProt P28566); details: Compound concentration 1.0 uM
Sequence of 5-hydroxytryptamine receptor 1E (Homo sapiens) (P28566 whole entry): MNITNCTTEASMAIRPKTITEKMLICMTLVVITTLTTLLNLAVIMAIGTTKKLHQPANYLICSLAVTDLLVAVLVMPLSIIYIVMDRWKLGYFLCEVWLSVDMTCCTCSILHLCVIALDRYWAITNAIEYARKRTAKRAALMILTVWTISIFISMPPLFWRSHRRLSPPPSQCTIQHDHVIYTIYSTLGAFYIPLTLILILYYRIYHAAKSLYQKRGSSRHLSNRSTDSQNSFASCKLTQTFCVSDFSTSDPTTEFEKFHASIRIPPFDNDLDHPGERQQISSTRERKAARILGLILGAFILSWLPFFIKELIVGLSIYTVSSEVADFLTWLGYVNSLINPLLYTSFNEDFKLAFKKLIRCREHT

[16] = biological target: Alpha-2B adrenergic receptor (Homo sapiens) (UniProt P18089); details: Compound concentration 1.0 uM
[17] = biological target: 5-hydroxytryptamine receptor 7 (Homo sapiens) (UniProt P34969); details: Compound concentration 1.0 uM
[18] = biological target: 5-hydroxytryptamine receptor 2C (Homo sapiens) (UniProt P28335); details: Compound concentration 1.0 uM
[19] = biological target: Muscarinic acetylcholine receptor M2 (Homo sapiens) (UniProt P08172); details: Compound concentration 1.0 uM
[20] = biological target: D(1A) dopamine receptor (Homo sapiens) (UniProt P21728); details: Compound concentration 1.0 uM
[21] = biological target: D(2) dopamine receptor (Homo sapiens) (UniProt P14416); details: Compound concentration 1.0 uM
[22] = biological target: Muscarinic acetylcholine receptor M5 (Homo sapiens) (UniProt P08912); details: Compound concentration 1.0 uM
Sequence of Muscarinic acetylcholine receptor M5 (Homo sapiens) (P08912 whole entry): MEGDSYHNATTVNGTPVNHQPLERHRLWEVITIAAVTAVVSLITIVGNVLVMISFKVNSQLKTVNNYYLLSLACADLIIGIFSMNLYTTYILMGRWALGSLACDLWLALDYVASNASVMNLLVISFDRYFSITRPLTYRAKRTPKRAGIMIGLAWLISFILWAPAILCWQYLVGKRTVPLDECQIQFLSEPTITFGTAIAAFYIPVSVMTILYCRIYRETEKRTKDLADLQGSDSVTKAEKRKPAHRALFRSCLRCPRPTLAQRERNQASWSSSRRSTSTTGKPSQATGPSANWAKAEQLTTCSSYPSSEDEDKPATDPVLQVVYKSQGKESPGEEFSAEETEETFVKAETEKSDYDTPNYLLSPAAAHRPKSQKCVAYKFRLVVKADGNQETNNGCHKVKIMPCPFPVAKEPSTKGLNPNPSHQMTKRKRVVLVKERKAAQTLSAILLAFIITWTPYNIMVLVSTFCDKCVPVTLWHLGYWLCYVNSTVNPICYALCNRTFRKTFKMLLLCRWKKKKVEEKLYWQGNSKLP

[23] = biological target: Sigma non-opioid intracellular receptor 1 (Homo sapiens) (UniProt Q99720); details: Compound concentration 1.0 uM
[24] = organism: Rattus norvegicus; details: Compound concentration 1.0 uM
[25] = biological target: Alpha-1D adrenergic receptor (Homo sapiens) (UniProt P25100); details: Compound concentration 1.0 uM
[26] = biological target: Histamine H2 receptor (Homo sapiens) (UniProt P25021); details: Compound concentration 1.0 uM
Sequence of Histamine H2 receptor (Homo sapiens) (P25021 whole entry): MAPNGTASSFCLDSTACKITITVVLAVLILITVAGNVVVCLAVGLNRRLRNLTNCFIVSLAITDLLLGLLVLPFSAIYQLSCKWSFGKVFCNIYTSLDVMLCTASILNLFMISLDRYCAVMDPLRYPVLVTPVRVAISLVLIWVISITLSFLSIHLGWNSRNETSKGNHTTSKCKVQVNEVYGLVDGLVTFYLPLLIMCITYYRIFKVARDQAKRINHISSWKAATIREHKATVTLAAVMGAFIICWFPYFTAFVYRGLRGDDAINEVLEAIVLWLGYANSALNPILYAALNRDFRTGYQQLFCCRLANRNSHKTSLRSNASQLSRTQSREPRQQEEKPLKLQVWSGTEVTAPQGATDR

[27] = biological target: Beta-2 adrenergic receptor (Homo sapiens) (UniProt P07550); details: Compound concentration 1.0 uM
[28] = biological target: Sodium-dependent dopamine transporter (Homo sapiens) (UniProt Q01959); details: Compound concentration 1.0 uM
Sequence of Sodium-dependent dopamine transporter (Homo sapiens) (Q01959 whole entry): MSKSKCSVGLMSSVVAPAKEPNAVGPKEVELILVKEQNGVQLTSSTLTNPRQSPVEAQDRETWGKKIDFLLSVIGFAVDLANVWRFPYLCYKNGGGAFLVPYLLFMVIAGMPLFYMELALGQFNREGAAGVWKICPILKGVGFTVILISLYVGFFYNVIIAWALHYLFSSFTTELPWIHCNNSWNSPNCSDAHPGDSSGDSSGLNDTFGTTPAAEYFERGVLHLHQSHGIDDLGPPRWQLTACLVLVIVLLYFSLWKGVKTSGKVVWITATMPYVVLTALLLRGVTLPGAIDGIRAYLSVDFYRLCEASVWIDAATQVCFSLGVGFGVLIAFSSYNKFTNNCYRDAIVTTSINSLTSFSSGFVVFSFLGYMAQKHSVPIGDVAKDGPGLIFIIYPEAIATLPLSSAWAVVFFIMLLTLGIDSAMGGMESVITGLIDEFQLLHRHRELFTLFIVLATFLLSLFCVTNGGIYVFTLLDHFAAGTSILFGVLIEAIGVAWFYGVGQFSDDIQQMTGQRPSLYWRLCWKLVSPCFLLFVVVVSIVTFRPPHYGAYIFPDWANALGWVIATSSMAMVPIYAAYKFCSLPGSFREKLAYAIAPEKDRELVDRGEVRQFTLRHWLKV

[29] = biological target: Sodium-dependent serotonin transporter (Homo sapiens) (UniProt P31645); details: Compound concentration 1.0 uM
Sequence of Sodium-dependent serotonin transporter (Homo sapiens) (P31645 whole entry, looked up): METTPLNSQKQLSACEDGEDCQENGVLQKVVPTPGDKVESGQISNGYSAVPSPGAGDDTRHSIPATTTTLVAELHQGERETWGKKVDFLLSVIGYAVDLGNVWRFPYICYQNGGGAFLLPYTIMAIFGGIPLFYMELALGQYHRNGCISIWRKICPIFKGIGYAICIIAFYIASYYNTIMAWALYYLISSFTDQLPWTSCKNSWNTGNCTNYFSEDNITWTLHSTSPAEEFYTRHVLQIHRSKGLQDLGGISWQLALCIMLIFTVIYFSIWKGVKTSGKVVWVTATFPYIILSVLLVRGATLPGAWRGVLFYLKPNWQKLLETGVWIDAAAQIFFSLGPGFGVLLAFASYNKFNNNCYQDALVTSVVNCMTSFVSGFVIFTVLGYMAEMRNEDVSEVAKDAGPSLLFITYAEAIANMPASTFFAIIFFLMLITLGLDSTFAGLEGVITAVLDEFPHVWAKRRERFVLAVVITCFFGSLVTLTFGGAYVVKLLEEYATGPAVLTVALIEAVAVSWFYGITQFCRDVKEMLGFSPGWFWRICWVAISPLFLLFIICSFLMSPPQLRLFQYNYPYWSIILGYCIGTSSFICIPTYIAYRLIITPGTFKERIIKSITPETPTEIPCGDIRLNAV

[30] = biological target: 5-hydroxytryptamine receptor 6 (Homo sapiens) (UniProt P50406); details: Compound concentration 1.0 uM
[31] = biological target: Mu-type opioid receptor (Homo sapiens) (UniProt P35372); details: Compound concentration 1.0 uM
[32] = biological target: D(1B) dopamine receptor (Homo sapiens) (UniProt P21918); details: Compound concentration 1.0 uM
[33] = biological target: Beta-3 adrenergic receptor (Homo sapiens) (UniProt P13945); details: Compound concentration 1.0 uM
Sequence of Beta-3 adrenergic receptor (Homo sapiens) (P13945 whole entry, looked up): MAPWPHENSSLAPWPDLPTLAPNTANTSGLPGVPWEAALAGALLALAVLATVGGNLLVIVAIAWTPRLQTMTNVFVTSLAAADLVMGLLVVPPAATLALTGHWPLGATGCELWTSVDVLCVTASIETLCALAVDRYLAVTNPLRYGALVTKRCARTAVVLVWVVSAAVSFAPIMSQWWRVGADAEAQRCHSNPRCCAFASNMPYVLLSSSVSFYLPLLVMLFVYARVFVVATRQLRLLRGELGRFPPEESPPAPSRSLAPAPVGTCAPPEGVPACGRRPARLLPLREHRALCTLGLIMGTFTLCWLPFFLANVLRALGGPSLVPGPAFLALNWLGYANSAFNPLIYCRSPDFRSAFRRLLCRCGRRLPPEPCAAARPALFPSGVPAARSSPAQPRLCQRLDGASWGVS

[34] = biological target: Muscarinic acetylcholine receptor M3 (Homo sapiens) (UniProt P20309); details: Compound concentration 1.0 uM
[35] = biological target: Alpha-2A adrenergic receptor (Homo sapiens) (UniProt P08913); details: Compound concentration 1.0 uM
[36] = biological target: 5-hydroxytryptamine receptor 1A (Homo sapiens) (UniProt P08908); details: Compound concentration 1.0 uM
[37] = Cellular activity assay: GPR54 expressing cell growth
[38] = biological target: Sigma intracellular receptor 2 (Homo sapiens) (UniProt Q5BJF2); details: Compound concentration 1.0 uM
Sequence of Sigma intracellular receptor 2 (Homo sapiens) (Q5BJF2 whole entry): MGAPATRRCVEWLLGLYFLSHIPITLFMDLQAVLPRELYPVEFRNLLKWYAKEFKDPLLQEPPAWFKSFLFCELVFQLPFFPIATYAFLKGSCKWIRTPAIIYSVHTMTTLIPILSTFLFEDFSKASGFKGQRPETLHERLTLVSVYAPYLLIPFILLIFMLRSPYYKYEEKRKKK

[39] = biological target: D(3) dopamine receptor (Homo sapiens) (UniProt P35462); details: Compound concentration 1.0 uM
[40] = biological target: 5-hydroxytryptamine receptor 1D (Homo sapiens) (UniProt P28221); details: Compound concentration 1.0 uM
[41] = biological target: Alpha-1A adrenergic receptor (Homo sapiens) (UniProt P35348); details: Compound concentration 1.0 uM
[42] = biological target: Delta-type opioid receptor (Homo sapiens, UniProt P41143); test: GPCRScan assay: inhibition of DOR; set-up: radioligand conc. used [nm] 1.0 – 2.0, parental cells stable HEK
Sequence of Delta-type opioid receptor (P41143 whole entry): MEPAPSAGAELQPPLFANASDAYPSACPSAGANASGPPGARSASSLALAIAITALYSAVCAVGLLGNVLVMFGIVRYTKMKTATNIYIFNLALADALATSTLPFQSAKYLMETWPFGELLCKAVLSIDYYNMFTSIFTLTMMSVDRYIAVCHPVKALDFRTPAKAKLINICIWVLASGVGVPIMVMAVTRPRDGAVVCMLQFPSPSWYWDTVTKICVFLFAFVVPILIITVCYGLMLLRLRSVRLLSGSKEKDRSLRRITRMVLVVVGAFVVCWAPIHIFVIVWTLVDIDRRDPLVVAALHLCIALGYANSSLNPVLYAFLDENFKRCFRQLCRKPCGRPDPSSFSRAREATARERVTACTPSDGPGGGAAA

[43] = biological target: Histamine H1 receptor (Homo sapiens) (UniProt P35367); details: Compound concentration 1.0 uM
[44] = biological target: KiSS-1 receptor (Homo sapiens, UniProt Q969F8); test: Agonist activity for hGPR54 (C-terminal ethyl amide)
[45] = biological target: 5-hydroxytryptamine receptor 3A (Homo sapiens) (UniProt P46098); details: Compound concentration 1.0 uM
[46] = biological target: D(4) dopamine receptor (Homo sapiens) (UniProt P21917); details: Compound concentration 1.0 uM
[47] = biological target: 5-hydroxytryptamine receptor 2A (Homo sapiens) (UniProt P28223); details: Compound concentration 1.0 uM

CNC(=N)NCCC[C@H](NC(=O)[C@H](CC(C)C)NC(=O)NNC(=O)[C@H](Cc1ccccc1)NC(=O)[C@H](CO)NC(=O)[C@H](CC(N)=O)NC(=O)[C@@H](Cc1ccncc1)NC(=O)[C@H](N)Cc1ccc(O)cc1)C(=O)N[C@@H](Cc1ccccc1)C(N)=O [KISS1-305] (H-[dY][d4Pal]NSF[azaGly]L[Arg(Me)]F-NH2)
inhibition [1]: 10.4% | inhibition [2]: 20.1% | inhibition [3]: 4.19% | inhibition [4]: 13.6% | inhibition [5]: 1.13% | inhibition [6]: 2.17% | inhibition [7]: -7.65% | inhibition [8]: 13.8% | inhibition [9]: 0.557% | inhibition [10]: -6.31% | inhibition [11]: 1.39% | inhibition [12]: 29.3% | inhibition [13]: 5.4% | inhibition [14]: 43.3% | inhibition [15]: 24.1% | inhibition [16]: 17.6% | inhibition [17]: -2.33% | inhibition [18]: 12.8% | inhibition [19]: 25.1% | inhibition [20]: -7.58% | inhibition [21]: 0.859% | inhibition [22]: 14.9% | inhibition [23]: 3.72% | inhibition [24]: 31.4% | inhibition [25]: 13.9% | inhibition [26]: 4.38% | inhibition [27]: 1.39% | inhibition [28]: 12% | inhibition [29]: 8.84% | inhibition [30]: 4.93% | inhibition [31]: -4.62% | inhibition [32]: 0.512% | inhibition [33]: 7.09% | inhibition [34]: 10.7% | inhibition [35]: 8.6% | inhibition [36]: 18.5% | IC50 [37]: 8.94 nM (active) | inhibition [38]: -5.31% | inhibition [39]: -8.85% | inhibition [40]: 10.4% | inhibition [41]: -9.06% | Ki ([42]; read-out: Ki): 47.5 nM | Ki ([42]; read-out: pKi (converted)): 44.7 nM | inhibition [43]: 19.9%

CNC(=N)NCCC[C@H](NC(=O)[C@H](CC(C)C)NC(=O)NNC(=O)[C@H](Cc1ccccc1)NC(=O)[C@H](CO)NC(=O)[C@H](CC(N)=O)NC(=O)[C@@H](Cc1cccnc1)NC(=O)[C@H](N)Cc1ccc(O)cc1)C(=O)NCC(N)=O [KISS1-543] (H-[dY][d3Pal]NSF[azaGly]L[Arg(Me)]G-NH2)
inhibition [1]: -3.39% | inhibition [2]: 16.3% | inhibition [3]: -0.48% | inhibition [4]: 12.3% | inhibition [5]: 11.3% | inhibition [6]: 15.1% | inhibition [7]: -2.08% | inhibition [8]: 18.5% | inhibition [9]: 3.41% | inhibition [10]: -5.75% | inhibition [11]: 15.5% | inhibition [12]: 31% | inhibition [13]: -1.33% | inhibition [14]: 12.5% | inhibition [15]: 27.9% | inhibition [16]: 14.5% | inhibition [17]: -6.69% | inhibition [18]: -2.67% | inhibition [19]: 40.7% | inhibition [20]: -0.599% | inhibition [21]: 9.68% | EC50 [44]: > 1000 nM (not active) | inhibition [22]: 12.3% | inhibition [23]: 0.205% | inhibition [24]: 15.6% | inhibition [25]: 9.13% | inhibition [26]: 3.31% | inhibition [45]: -8.29% | inhibition [27]: -2.89% | inhibition [28]: 10.4% | inhibition [29]: -0.408% | inhibition [30]: -0.513% | inhibition [31]: -7.85% | inhibition [32]: 29.2% | inhibition [33]: 2.7% | inhibition [34]: 24.7% | inhibition [35]: 10.2% | inhibition [36]: 30.9% | inhibition [38]: -8.74% | inhibition [46]: -9.83% | inhibition [39]: -3.9% | inhibition [47]: 16.9% | inhibition [40]: 12.4%
